In ChEMBL document CHEMBL1147477, “(4-Carboxamido)phenylalanine is a surrogate for tyrosine in opioid receptor peptide ligands” (Bioorg Med Chem Lett, 2004):

Tests used:
Assay type in all cases: toxicity, cell-based
[1] = Lethal dose against human […] HL- 60 cell line; settings: HL-60 cells, read-out: LD50 (the source's name)
[2] = Lethal dose against HL-60 human peripheral blood cancer cell line; settings: HL-60 cells, read-out: LD50 (the source's name)
[3] = Lethal dose against NUGC-3 human stomach cancer cell line; settings: NUGC-3 cells, read-out: LD50 (the source's name)
[4] = Lethal dose against HeLa human cervix cancer cell line; settings: HeLa cells, read-out: LD50 (the source's name)

CC(C)=C1Oc2c(ccc3cc(C)ncc23)C1=O showed a CC50 [1] of 39 µM.
In the case of CC(C)=C1Oc2c(ccc3c2C(O)OC(C)C3)C1=O (centres undefined), the CC50 [2] is reported as 39 µM, the CC50 [3] is reported as 49 µM and the CC50 [4] is reported as 47 µM.
